Data from US8440710B2, “HSL inhibitors useful in the treatment of diabetes” (Hoffmann-La Roche Inc., priority 2009, dated 2013).

Each compound was assayed against T1, human HSL (Homo sapiens, UniProt Q05469) (assay: Human Hormone-Sensitive Lipase (HSL) enzyme inhibition assay (colorimetric, DMPT substrate)). Conditions: human full length HSL-His6, 2,3-dimercapto-1-propanol tributyrate substrate, 37° C. 20 minutes, absorbance at 405 nm; read-out: HSL hum IC50.
T1 construct: generate a full length human HSL ORF with a 3′-His6 tag; made in house; host or cells: High 5 insect cells (baculovirus, pFast-BAC)
T1 sequence (Q05469 1-1076): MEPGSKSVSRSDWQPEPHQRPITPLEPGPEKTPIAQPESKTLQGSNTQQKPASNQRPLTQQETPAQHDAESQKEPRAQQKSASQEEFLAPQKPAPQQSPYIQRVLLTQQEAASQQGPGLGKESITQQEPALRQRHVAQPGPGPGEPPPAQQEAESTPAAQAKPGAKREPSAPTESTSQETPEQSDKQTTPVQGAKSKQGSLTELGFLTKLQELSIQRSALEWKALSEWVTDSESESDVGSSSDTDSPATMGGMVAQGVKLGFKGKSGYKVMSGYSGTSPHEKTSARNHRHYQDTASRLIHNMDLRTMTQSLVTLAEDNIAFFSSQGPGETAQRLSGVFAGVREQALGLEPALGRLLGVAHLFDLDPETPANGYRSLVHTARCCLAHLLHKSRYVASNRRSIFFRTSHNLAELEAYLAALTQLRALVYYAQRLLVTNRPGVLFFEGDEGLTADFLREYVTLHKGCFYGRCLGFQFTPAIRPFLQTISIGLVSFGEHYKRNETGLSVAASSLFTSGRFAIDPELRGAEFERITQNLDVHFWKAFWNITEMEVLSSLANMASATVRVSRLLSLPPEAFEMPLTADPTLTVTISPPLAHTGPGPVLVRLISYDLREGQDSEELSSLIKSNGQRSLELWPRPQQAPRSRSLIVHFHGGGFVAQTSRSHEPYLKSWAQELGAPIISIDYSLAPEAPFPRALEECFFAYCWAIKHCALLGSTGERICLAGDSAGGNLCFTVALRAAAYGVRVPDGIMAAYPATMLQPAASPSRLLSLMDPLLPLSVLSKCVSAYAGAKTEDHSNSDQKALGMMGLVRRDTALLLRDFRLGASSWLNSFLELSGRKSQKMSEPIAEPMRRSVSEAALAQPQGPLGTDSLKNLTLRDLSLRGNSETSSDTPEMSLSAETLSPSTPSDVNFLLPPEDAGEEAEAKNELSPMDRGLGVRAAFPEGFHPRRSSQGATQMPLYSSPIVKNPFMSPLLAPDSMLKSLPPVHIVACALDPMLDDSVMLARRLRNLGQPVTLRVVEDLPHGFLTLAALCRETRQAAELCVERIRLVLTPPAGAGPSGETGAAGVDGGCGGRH
Format: biochemical
Summary of the method: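 Full-length human HSL with C-terminal His6, expressed in baculovirus-infected High 5 cells and Ni-NTA purified, was added (15 ug/ml stock) to 1.5 mM DMPT in 100 mM MOPS pH 7.2, 0.2 mg/ml fatty acid-free BSA containing compound. After 20 min at 37 °C, DTNB with SDS/Triton X-100 was added; A405 read after 15 min at RT.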

`CC(C)(C)c1ccc(N2CC[C@]3(CC[C@@](O)(C(F)(F)F)CC3)C2=O)cc1` [Example 345, (5α,8α)-2-(4-tert-Butyl-phenyl)-8-hydroxy-8-trifluoromethyl-2-aza-spiro[4.5]decan-1-one] and `O=C1N(c2ccc(OC(F)(F)F)cc2)CC[C@]12CC[C@@](O)(C(F)(F)F)CC2` [Example 112, (5α,8α)-8-Hydroxy-2-(4-trifluoromethoxy-phenyl)-8-trifluoromethyl-2-aza-spiro[4.5]decan-1-one] are the same in IC50: 20 nM for the first, 20 nM for the second.

First: CCc1ccc(N2CC[C@]3(CC[C@H](OCc4ccccc4)CC3)C2=O)cc1 [Example 43, (5α,8α)-8-Benzyloxy-2-(4-ethyl-phenyl)-2-aza-spiro[4.5]decan-1-one]
Second: CCO[C@H]1CC[C@]2(CCN(c3ccc(OC(F)(F)F)cc3)C2=O)CC1 [Example 41, (5α,8α)-8-Ethoxy-2-(4-trifluoromethoxy-phenyl)-2-aza-spiro[4.5]decan-1-one]
The IC50 of the first is 1.9-fold higher: 740 nM for the first, 390 nM for the second.

`O=C1N(c2ccc(OC(F)(F)F)cc2)CC[C@]12CC[C@@H](Oc1cnccn1)CC2` [Example 19, (5α,8β)-8-(Pyrazin-2-yloxy)-2-(4-trifluoromethoxy-phenyl)-2-aza-spiro[4.5]decan-1-one] and `O=C1N(c2ccc(OC(F)(F)F)cc2)CC[C@]12CC[C@H](O)CC2` [Example 2, (5α,8α)-8-Hydroxy-2-(4-trifluoromethoxy-phenyl)-2-aza-spiro[4.5]decan-1-one] are within 1.5-fold of each other in IC50: 140 nM for the first, 150 nM for the second.

Going from `CCOC[C@]1(O)CC[C@]2(CCN(c3ccc(O[C@H](C)C(F)(F)F)cc3)C2=O)CC1` [Example 253, (5α,8α)-8-Ethoxymethyl-8-hydroxy-2-[4-((R)-2,2,2-trifluoro-1-methyl-ethoxy)-phenyl]-2-aza-spiro[4.5]decan-1-one] to `CCOC[C@]1(O)CC[C@@]2(CCN(c3ccc(O[C@H](C)C(F)(F)F)cc3)C2=O)CC1` [Example 252, (5α,8β)-8-Ethoxymethyl-8-hydroxy-2-[4-((R)-2,2,2-trifluoro-1-methyl-ethoxy)-phenyl]-2-aza-spiro[4.5]decan-1-one], the IC50 rises from 20 nM to 230 nM (12-fold). The first is the more potent here.

Compared with `COC[C@]1(O)CC[C@]2(CCN(c3ccc(OCC(F)(F)F)cc3)C2=O)CC1` [Example 258, (5α,8α)-8-Hydroxy-8-methoxymethyl-2-[4-(2,2,2-trifluoro-ethoxy)-phenyl]-2-aza-spiro[4.5]decan-1-one], `COC[C@]1(O)CC[C@]2(CCN(c3ccc(OC(F)(F)F)cc3)C2=O)CC1` [Example 114, (5α,8α)-8-Hydroxy-8-methoxymethyl-2-(4-trifluoromethoxy-phenyl)-2-aza-spiro[4.5]decan-1-one] is 2.3-fold lower in IC50: 70 nM for the first, 30 nM for the second. The second is the more potent here.

First: C[C@H](Oc1ccc(N2CC[C@]3(CC[C@@](O)(C(F)(F)F)CC3)C2=O)cc1)C(F)(F)F [Example 177a, (5α,8α)-8-Hydroxy-8-trifluoromethyl-2-[4-((S)-2,2,2-trifluoro-1-methyl-ethoxy)-phenyl]-2-aza-spiro[4.5]decan-1-one]
Second: C[C@@H](Oc1ccc(N2CC[C@]3(CC[C@@](O)(C(F)(F)F)CC3)C2=O)cn1)C(F)(F)F [Example 174, (5α,8α)-8-Hydroxy-8-trifluoromethyl-2-[6-((R)-2,2,2-trifluoro-1-methyl-ethoxy)-pyridin-3-yl]-2-aza-spiro[4.5]decan-1-one]
The IC50 of the first is 1.5-fold lower: 40 nM for the first, 60 nM for the second.

Going from `COCCO[C@H]1CC[C@@]2(CCN(c3ccc(OC(F)(F)F)cc3)C2=O)CC1` [Example 23, (5α,8β)-8-(2-Methoxy-ethoxy)-2-(4-trifluoromethoxy-phenyl)-2-aza-spiro[4.5]decan-1-one] to `C[C@]1(O)CC[C@]2(CCN(c3ccc(OC(F)(F)F)cc3)C2=O)CC1` [Example 57, (5α,8α)-8-Hydroxy-8-methyl-2-(4-trifluoromethoxy-phenyl)-2-aza-spiro[4.5]decan-1-one], the IC50 falls from 190 nM to 70 nM (2.7-fold). The second is the more potent here.

Compared with `CCOC[C@]1(O)CC[C@]2(CCN(c3ccc(C(C)(C)C)cc3)C2=O)CC1` [Example 348, (5α,8α)-2-(4-tert-Butyl-phenyl)-8-ethoxymethyl-8-hydroxy-2-aza-spiro[4.5]decan-1-one], `CCCOC[C@]1(O)CC[C@]2(CCN(c3ccc(C4CC4)cc3)C2=O)CC1` [Example 272, (5α,8α)-2-(4-Cyclopropyl-phenyl)-8-hydroxy-8-propoxymethyl-2-aza-spiro[4.5]decan-1-one] is 2-fold higher in IC50: 10 nM for the first, 20 nM for the second. The first is the more potent here.

Compared with `O=C1N(c2ccc(OCC(F)(F)F)cc2)CC[C@]12CC[C@@](O)(COCC1CCO1)CC2` (stereo partly drawn) [Example 259, (5α,8α)-8-Hydroxy-8-(oxetan-2-ylmethoxymethyl)-2-[4-(2,2,2-trifluoro-ethoxy)-phenyl]-2-aza-spiro[4.5]decan-1-one], `O=C1N(c2ccc(OCC(F)(F)F)cc2)CC[C@]12CC[C@@](O)(COCC(F)(F)F)CC2` [Example 233, (5α,8α)-8-Hydroxy-8-(2,2,2-trifluoro-ethoxymethyl)-2-[4-(2,2,2-trifluoro-ethoxy)-phenyl]-2-aza-spiro[4.5]decan-1-one] is 4-fold lower in IC50: 80 nM for the first, 20 nM for the second.

Compared with `O=C1N(c2ccc(CC(F)(F)F)cc2)CC[C@]12CC[C@](O)(COCC(F)(F)F)CC2` [Example 286, (5α,8β)-8-Hydroxy-8-(2,2,2-trifluoro-ethoxymethyl)-2-[4-(2,2,2-trifluoro-ethyl)-phenyl]-2-aza-spiro[4.5]decan-1-one], `O=C1N(c2ccc(OCC(F)(F)F)cc2)CC[C@]12CC[C@](O)(COCc1ccccc1)CC2` [Example 241, (5α,8β)-8-Benzyloxymethyl-8-hydroxy-2-[4-(2,2,2-trifluoro-ethoxy)-phenyl]-2-aza-spiro[4.5]decan-1-one] is 2.1-fold lower in IC50: 190 nM for the first, 90 nM for the second. The second is the more potent here.

`O=c1ccccn1C[C@]1(O)CC[C@]2(CCN(c3ccc(OCC(F)(F)F)cc3)C2=O)CC1` [Example 369, (5α,8α)-8-Hydroxy-8-(2-oxo-2H-pyridin-1-ylmethyl)-2-[4-(2,2,2-trifluoro-ethoxy)-phenyl]-2-aza-spiro[4.5]decan-1-one] and `O=C1N(c2ccc(OCC(F)(F)F)cc2)CC[C@]12CC[C@@](O)(COc1ccccc1)CC2` [Example 240, (5α,8α)-8-Hydroxy-8-phenoxymethyl-2-[4-(2,2,2-trifluoro-ethoxy)-phenyl]-2-aza-spiro[4.5]decan-1-one] are the same in IC50: 20 nM for the first, 20 nM for the second.

First: CCC[C@]1(O)CC[C@@]2(CCN(c3ccc(OC(F)(F)F)cc3)C2=O)CC1 [Example 56, (5α,8β)-8-Hydroxy-8-propyl-2-(4-trifluoromethoxy-phenyl)-2-aza-spiro[4.5]decan-1-one]
Second: CN(C)C(=O)C[C@]1(O)CC[C@]2(CCN(c3ccc(OC(F)(F)F)cc3)C2=O)CC1 [Example 156, 2-[(5α,8α)-8-Hydroxy-1-oxo-2-(4-trifluoromethoxy-phenyl)-2-aza-spiro[4.5]dec-8-yl]-N,N-dimethyl-acetamide]
The IC50 of the first is 9.5-fold higher: 570 nM for the first, 60 nM for the second. The second is the more potent here.

Compared with `CC(C)C(O)[C@H]1CC[C@]2(CCN(c3ccc(C(C)(C)C)cc3)C2=O)CC1` (some centres unmarked) [Example 356], `CN(C)C(=O)C[C@]1(O)CC[C@]2(CCN(c3ccc(OCC(F)(F)F)cc3)C2=O)CC1` [Example 157, 2-((5α,8α)-8-Hydroxy-1-oxo-2-(4-(2,2,2-trifluoroethoxy)phenyl)-2-aza-spiro[4.5]decan-8-yl)-N,N-dimethylacetamide] is 2.5-fold higher in IC50: 100 nM for the first, 250 nM for the second.

First: CCC[C@]1(O)CC[C@]2(CCN(c3ccc(O[C@@H](C)C(F)(F)F)nc3)C2=O)CC1 [Example 172, (5α,8α)-8-Hydroxy-8-propyl-2-[6-((S)-2,2,2-trifluoro-1-methyl-ethoxy)-pyridin-3-yl]-2-aza-spiro[4.5]decan-1-one]
Second: CC(C)S(=O)(=O)C[C@]1(O)CC[C@]2(CCN(c3ccc(O[C@@H](C)C(F)(F)F)nc3)C2=O)CC1 [Example 323, (5α,8α)-8-Hydroxy-8-(propane-2-sulfonylmethyl)-2-[6-((S)-2,2,2-trifluoro-1-methyl-ethoxy)-pyridin-3-yl]-2-aza-spiro[4.5]decan-1-one]
The IC50 of the first is 2-fold higher: 20 nM for the first, 10 nM for the second.

Compound `O=C1N(c2ccc(OC(F)(F)F)cc2)CC[C@]12CC[C@@](O)(Cc1ccccc1)CC2` [Example 62, (5α,8α)-8-Benzyl-8-hydroxy-2-(4-trifluoromethoxy-phenyl)-2-aza-spiro[4.5]decan-1-one] has an IC50 of 20 nM.
